From article PMC6331910, “The Curcumin Analogue 1,5-Bis(2-hydroxyphenyl)-1,4-pentadiene-3-one Induces Apoptosis and Downregulates E6 and E7 Oncogene Expression in HPV16 and HPV18-Infected Cervical Cancer Cells” (Molecules, 2015)

Tested on: MRC9
Assay: MTT cell viability (cytotoxicity) assay on non-cancerous lung fibroblasts, 72 h
Assay type: cell-based
Details: Homo sapiens, MRC9; MTT, 72 h, non-cancerous lung fibroblasts; read-out: EC50 (Mean ± S.E.M.) MRC9
Protocol: HeLa, CaSki and MRC9 cells were plated in triplicate wells in 96-well flat-bottomed tissue culture plates (Nunc, Roskilde, Denmark) with 10^5 cells per mL in 100 μL culture media with working concentrations of diarylpentanoid treatment ranging from 1.6 to 100 μM. Control-treated wells contained cells incubated in media with equal volumes of DMSO (0.2%). Cells were treated for 72 h for dose-dependent cytotoxicity assays and at 24, 48 and 72 h for anti-proliferative (time-dependent) assays. In order to assess cell viability and anti-proliferative activity after diarylpentanoid treatment, the colorimetric 3-(4,5-dimethylthiazol-2-yl)-2,5-diphenyltetrazolium bromide (MTT) assay was performed as previously described with modifications. The media was aspirated and cells were incubated in 100 µL complete medium with 0.5 mg/mL MTT solution for 4 h in the dark to allow metabolism of MTT by cellular mitochondrial dehydrogenases. The excess MTT was aspirated and the formazan crystals formed were dissolved by the addition of 100 µL of DMSO. The absorbance of dark blue formazan was read at 570/650 nm wavelengths using a microplate reader (Bio-Rad Benchmark Plus Microplate Spectrophotometer, Hercules, CA, USA). Triplicate absorbance values were averaged and the effect of the compounds on growth inhibition was assessed as percentage cell viability as follows: (1) Percentage cell viability =Absorbance of Test − Absorbance of Blank (media only)/Absorbance of Control − Absorbance of Blank (media only) × 100 where, absorbance = optical density of sample, O.D.; control = untreated sample; test = treated sample.
The results were analysed using GraphPad Prism version 6.00 for Windows (GraphPad Software, La Jolla, CA, USA). Using percentage cell viability Equation (1), log dose–response curves were constructed, from which the half maximal effective concentration, EC50 for each replicate was determined. Overall EC50 was determined by taking the average EC50 from three independent experiments. […] (3) Selectivity Index (SX) =EC50 (MRC9)/EC50 (Cancer cell line) × 100

**Q.** How did the EC50 turn out when `O=C(C=Cc1ccccc1O)C=Cc1ccccc1O` [MS17, 1,5-bis(2-hydroxyphenyl)-1,4-pentadiene-3-one] was run?
**A.** The EC50 was 4.6 ± 1.2 µM.
